Laboratory results reported in patent publication US7919077B2, “Pharmaceutical compositions comprising CCL2 and use of same for the treatment of inflammation” (Yeda Research and Development Co. Ltd., priority 2006, dated 2011).

Assays:
[1] = system: naïve T cells; experiment: Cytoskeleton rearrangement (actin polymerization), naïve T cells; assay type: cell-based, mice; settings: CCL21 stimulation in presence of chemokine 0.1 ng/ml; FIG. 2e
Description: Cytoskeleton rearrangement—T cells were pre-incubated for 30 minutes in the presence or absence of CCL2 (0.1 ng/ml), and then stimulated with either CXCL12 (0.1 mg/ml PeproTech, Inc., Rocky Hill N.J.), SLC (CCL21, 0.4 mg/ml, PeproTech, Inc., Rocky Hill, N.J.), Rantes (0.1 mg/ml, R&D systems Minneapolis, Minn.), MIP-1β(0.1 mg/ml, R&D systems Minneapolis, Minn.) or Eotoxin (0.1 mg/ml R&D systems Minneapolis, Minn.) for 15 seconds. Cells were then immediately fixed with paraformaldehyde, permeabilized and their intracellular F-actin was stained with FITC-phalloidin (Sigma-Aldrich, St. Louis, Mo.), and then analyzed by flow cytometry to determine the state of their cytoskeleton, as previously described [Flaishon, L. F., et al., J. Biol. Chem. 276:46701 (2001)].

[2] = system: human T cells interacting with ICAM-1 (LFA-1); experiment: Laminar flow adhesion assay on ICAM-1 with co-immobilized CCL21; assay type: cell-based; settings: low dose chemokine pretreatment
Description: (§1) Laminar flow adhesion assays—Purified VCAM-1 or ICAM-1-Fc (both from R&D Systems, Minneapolis, Minn.) were coated with or without CCL21 (R&D Systems) on polystyrene plates as previously described [Grabovsky et al., J Exp Med. (2000) 192:495-506; Sigal et al., J Immunol. (2000) 165:442-452]. The polystyrene plates were each assembled on the lower wall of the flow chamber as previously described [Feigelson et al., J Biol Chem. (2001) 276:13891-13901]. All flow experiments were conducted at 37° C. Cells were washed with cation-free H/H medium, resuspended in binding medium (H/H medium supplemented with 1 mM CaCl2 and 1 mM MgCl2) and perfused through the flow chamber at low shear stress (0.5-0.75 dyn/cm^2) for 2 minutes. Tethers were defined as transient or rolling if cells attached briefly (<2 seconds) to the substrate and as arrests if immediately arrested and remaining stationary for at least 5 seconds of continuous flow. Frequencies of adhesive categories within differently pretreated cells were determined as a percentage of cells flowing immediately over the substrates, as previously described [Grabovsky et al., supra]. To assess resistance to detachment over time, accumulated cells were subjected to a shear stress of 5 dyn/cm^2 for 5 minutes. At the indicated time points, the number of cells that remained bound was expressed relative to T cell population originally accumulated in the first 2 minute period of the assay. Over 90% of cellular tethers to VCAM-1 or ICAM-1 were blocked by pretreating cells with VLA-4 or LFA-1 blockers respectively.

[3] = system: human T cells interacting with VCAM-1 (VLA-4); experiment: Laminar flow adhesion assay on VCAM-1 with co-immobilized CCL21; assay type: cell-based; settings: low dose chemokine pretreatment
Description: as §1

[4] = TNBS colitis mouse model; assay type: in vivo, mice; settings: dexamethasone i.p. daily
Description: TNBS colitis model and treatment with CCL2—TNBS colitis was induced as previously described [Ohkawara et al. (2002) Gastroenterology, 123:256]. Briefly, mice were anesthetized by i.p. injection (35 μl per mouse) of a mixture containing 85% ketamine and 15% xylazine (20 mg/ml). Next, 100 μl of TNBS [55% volume of 50% ethanol mixed with 45% volume of TNBS solution ([…]; Sigma-Aldrich)] was infused into the colonic lumen (about 3.5 cm of the anal verge) via 1 ml syringe attached to a feeding needle. Treated mice were weighted daily and visually inspected for clinical symptoms, such as rectal bleeding and diarrhea.
TNBS mice were divided into 6 groups. CCL2 groups (10 mice in each group) were injected i.p. daily with different CCL2 concentrations (30 ng, 60 ng or 180 ng) in 200 μl of PBS from day 0 (immediately after TNBS induction) to day 6. Control groups (10 mice in each group) were injected i.p. daily with 200 μl PBS alone. Additionally, 5 mice were injected i.p. daily with dexamethasone; and 1 mouse which was not treated and served as negative control for future histology and weight.
Macroscopic and histological assessment of colitis—An observer blind to the experimental procedure scored colitis for clinical manifestation of disease. The colon was macroscopically examined (×5 magnification) to evaluate the macroscopic lesions according to the Wallace criteria. The Wallace score ranks macroscopic colon lesions on a scale from 0 to 16 based on criteria reflecting inflammation, such as hyperemia, thickening of the bowel and the extent of ulceration. The colon was cut lengthwise and fixed in 4% paraformaldehyde for future histology.

Eotoxin: comparator chemokine (R&D systems) [reference compound]
inhibitory effect of low levels of chemokine on actin polymerization of naïve T cells [1]: no inhibitory effect

CXCL12: chemokine, chemoattractant for T cells; tested at low dose as comparator [reference compound]
inhibitory effect of low levels of chemokine on actin polymerization of naïve T cells [1]: no inhibitory effect | post arrest adhesion strengthening on ICAM-1 (resistance to detachment) ([2]; high shear stress 5 dyn/cm^2, FIG. 6b): retained | LFA-1 activation by surface bound CCL21 (arrest on ICAM-1) ([2]; shear stress 0.5 dyn/cm^2, FIG. 6a): retained | post arrest adhesion strengthening on VCAM-1 (resistance to detachment) ([3]; high shear stress 5 dyn/cm^2, FIG. 6d): retained | VLA-4 activation by surface bound CCL21 (arrest on VCAM-1) ([3]; shear stress 0.75 dyn/cm^2, FIG. 6c): retained

C[C@@H]1C[C@H]2[C@@H]3CCC4=CC(=O)C=C[C@]4(C)[C@@]3(F)[C@@H](O)C[C@]2(C)[C@@]1(O)C(=O)CO [dexamethasone, reference compound]
Colon length (cm) [4]: 8.17 ± 0.76 cm | Diarrhea (# of mice) ([4]; 3 mice): 0 # of mice | Colitis score ([4]; Wallace score 0 to 16, mean±SEM): 0.67 ± 0.58

B1: Rantes: comparator chemokine (R&D systems) (protein, UniProt P13501 24-91, looked up)
C-C motif chemokine 5: SPYSSDTTPCCFAYIARPLPRAHIKEYFYTSGKCSNPAVVFVTRKNRQVCANPEKKWVREYINSLEMS
inhibitory effect of low levels of chemokine on actin polymerization of naïve T cells [1]: no inhibitory effect

B2: Mip1β: comparator chemokine (R&D systems) (protein, UniProt P13236 24-92, looked up)
C-C motif chemokine 4: APMGSDPPTACCFSYTARKLPRNFVVDYYETSSLCSQPAVVFQTKRSKQVCADPSESWVQEYVYDLELN
inhibitory effect of low levels of chemokine on actin polymerization of naïve T cells [1]: no inhibitory effect
